For 80 compounds, RP-LC retention time results are on record in the METLIN SMRT retention time set (Domingo-Almenara et al. 2019).

The nature of the data set: gradient 5% acetonitrile 3 min, to 50% in 2 min, to 85% in 15 min, held 3 min, 100 µL/min. Conditions: column: Zorbax Extend-C18 2.1 x 50 mm; eluents: water / acetonitrile, 0.1% formic acid. Summed up:
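Over 3 months, pure standards in mixtures of ~100 molecules were run by HPLC coupled to a quadrupole time-of-flight mass spectrometer in positive and negative ionization mode. The column was a Zorbax Extend-C18 (2.1 × 50 mm, 1.8 μm) at 100 μL/min, eluted with water and acetonitrile each holding 0.1% formic acid, with 40 μL dead and 900 μL dwell volumes. Retention time was determined from adduct peaks chosen by software and checked manually.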
`O=C(CN1C(=O)CCS(=O)(=O)c2ccccc21)Nc1ccc(Cl)cc1` showed an RP-LC retention time of 797 s. For `COc1ccc(-c2nc(-c3ccc4c(c3)nnn4CCN(C)C)no2)c(C)c1` the value was 700 s; for `CCN(CC)c1nc2ccsc2c(=O)n1CCC(=O)NCc1ccccc1F`, 823 s.

The compound `CC(=O)Nc1ccc(SCc2nnc(-c3ccc4c(c3)OCO4)o2)cc1` displayed an RP-LC retention time of 760 s. `CCC1CN(C(=O)N2CCC(C(=O)NCCc3ccco3)CC2)c2ccccc2O1` (stereo not given) displayed an RP-LC retention time of 852 s.

Regarding `Cc1nn(-c2ccccc2)c2sc(C(=O)Oc3ccc(F)cc3)cc12`, the RP-LC retention time is 1380 s. Regarding `CC1CCNC2C1NC(=O)C1CCCNC1N2C1CC1` (stereo not given), the RP-LC retention time turned out to be 679 s. The value for `CCN(Cc1ccc(OC)cc1)Cc1cc(=O)n2cc(C)ccc2n1` was 572 s; that for `CCOc1ccccc1NC(=O)N1CCC([C@@H]2[C@H](OC)C(=O)N2C(C)C)CC1` was 846 s.

On to `O=C(CCc1nnc2ccc(N3CCCCC3)nn12)N1CCN(c2ccccn2)CC1`, for which the RP-LC retention time stood at 597 s.

For `COc1ccc(OCC(=O)Nc2nc(-c3ccccc3)cs2)cc1`, the RP-LC retention time was 1050 s. The compound `CCCN1C(=O)COc2cc(-c3noc(C(=O)N4CCN(c5cccc(Cl)c5)CC4)n3)ccc21` showed an RP-LC retention time of 1230 s. The value for `Cc1cnc(C2CC2)n1C1CCN(S(=O)(=O)c2cccc(F)c2)C1` (stereo not given) was 654 s; that for `CC(C)NC(=O)c1ccc(OCC2CCCN(C(=O)Cc3cccc(F)c3)C2)cc1` (stereo not given) was 955 s; that for `Cc1ccc2oc(C(=O)NCc3ccc4c(c3)OCO4)cc2n1` was 635 s. For `O=C(Cn1cc(-c2nnco2)c2ccccc21)NCc1ccccc1Cl` the value was 831 s; for `CC(=O)N1CCc2cc(N3CC(C(=O)Nc4cccc(Cl)c4F)CC3=O)ccc21` (stereo not given), 742 s. For `O=C(c1c(F)cccc1F)N1CCc2nc(-c3ccc(Cl)cc3)ncc2C1` the value was 1100 s; for `CC(C)OC(=O)C(C(=O)OC(C)C)=C1SC=CS1`, 1110 s; for `Cc1ccc(-c2nnc(-c3nc(NCCC4=CCCCC4)c4ccccc4n3)o2)cc1`, 1300 s.

In turn, `Cc1cnc(C2CN(C3CCCCCC3)C2)n1Cc1ccccc1` gave an RP-LC retention time of 588 s.

For `O=C1CCC(=O)N1CCc1c[nH]c2ccc(OCc3ccccc3)cc12`, the RP-LC retention time was determined as 1030 s. The value for `CSc1ccc(CNC(=O)CSc2cc(N3CCCCC3)ncn2)cc1` was 767 s; that for `Cc1cccc(CC(=O)Nc2c(C(=O)N3CCN(c4ccccn4)CC3)oc3ccccc23)c1` was 705 s.

In the case of `O=C(Nc1ccccc1)N1CCCC(c2nnnn2-c2ccccc2)C1` (stereo not given), the RP-LC retention time was 820 s.

On to `CC(C(=O)NCCCN(C)c1ccccc1)n1c(=O)c(C(F)(F)F)nc2ccccc21` (stereo not given), for which the RP-LC retention time worked out at 881 s. The value for `CC1(C(=O)NCc2ccc3c(c2)OCO3)CCN(C(=O)/C=C/c2ccccc2)CC1` was 817 s. The value for `O=C(NCCC1CCN(C(=O)Nc2ccc(F)cc2F)CC1)c1cccs1` was 737 s; that for `COc1ccc(NC(=O)N2CCC(n3cnc4ccc(Cl)cc4c3=O)CC2)c(OC)c1` was 803 s; that for `CC(C)(NS(=O)(=O)c1ccc(Oc2ccc(F)cc2)cc1)C(=O)NO` was 804 s.

In turn, `COC(=O)c1ccccc1NC(=O)C1CCCN(c2nc3c(s2)c(C)nn3-c2ccccc2)C1` (stereo not given) came in with an RP-LC retention time of 1380 s. For `COC(=O)Nc1nc2ccc(C(=O)c3ccc(F)cc3)cc2[nH]1` the value was 864 s; for `Cc1ccccc1C(=O)NCCN1CCN(c2ccc(Cl)cc2)CC1`, 610 s. For `c1ccc(-c2nc(-c3ccc(-n4ccnc4)nc3)no2)cc1` the value was 720 s; for `COc1ccc(NC(=O)NCCc2nc3cccnc3n2C2CCCC2)c(OC)c1`, 708 s; for `O=C(NCC1CCN(c2ncccn2)CC1)Nc1ccc2c(c1)OCO2`, 632 s. For the compound `CC(C)NC(=O)NCCC1CCN(S(=O)(=O)c2ccc(F)cc2)CC1`, the RP-LC retention time was 782 s.

The compound `CCOC(=O)C1CCCN(C(=O)CCCOc2cc(=O)n(C)c3ccccc23)C1` (stereo not given) displayed an RP-LC retention time of 800 s. The value for `Cc1ccc(Cn2c(N3CCCC(C(=O)Nc4ccc(F)cc4)C3)nc3ccsc3c2=O)cc1` (stereo not given) was 1060 s; that for `Cc1ccc2nc(-c3cccc(Br)c3)c(Nc3ccc4c(c3)OCCO4)n2c1` was 749 s; that for `CCc1onc(C)c1C1CCCN1C(=O)c1c(Br)cnn1C` (stereo not given) was 728 s. On to `Cc1cccc(C)c1NC(=O)Cn1ncc2c(N3CCN(c4ccccn4)CC3)ncnc21`, for which the RP-LC retention time turned out to be 606 s. The value for `CC(C)CC(=O)Nc1ccc(-n2cnc(C(=O)NC3CC3)c2)nc1` was 668 s. The value for `c1ccc(OCc2nc(-c3cccc(-c4csc(C5CC5)n4)c3)no2)cc1` was 1330 s; that for `COc1ccc(-c2nc(-c3ccc4c(c3)oc(=O)n4C(C)C)no2)cc1OC` was 1070 s; that for `Cc1cc(C)c(NC(=O)Cn2c(=O)n(-c3ccc(F)cc3)c(=O)c3c2cc(C)n3C)c(C)c1` was 921 s. The value for `Cc1ccc(Cl)cc1NS(=O)(=O)c1cc(-c2nc(C(C)(C)C)cs2)cs1` was 1330 s; that for `O=C(c1[nH]nc2c1CCc1ccccc1-2)N1CCC(c2noc(-c3cccnc3)n2)C1` (stereo not given) was 776 s. `Cc1cccc(NC(=O)Cn2c(=O)n(-c3ccccc3)c(=O)c3c2cc(C)n3C)c1` gave an RP-LC retention time of 831 s. The value for `Cn1nc(C(=O)Nc2ccccc2)c2c1CCN(C(=O)CCC(=O)N1CCOCC1)C2` was 668 s. `Cc1cc(C)cc(Oc2nccn3c(=O)n(CC(=O)NC4CCCC4)nc23)c1` came in with an RP-LC retention time of 834 s. For `COc1cccc(C(=O)Nc2c3c(nn2C(C)(C)C)CS(=O)(=O)C3)c1` the value was 752 s. The value for `CCCc1ccc(S(=O)(=O)NCc2c(-c3ccccc3)nc3sc(C)nn23)cc1` was 1030 s; that for `Cc1cccc(Cn2c(C)c(CNCCc3ccco3)c(C(=O)O)c2C)c1` was 720 s; that for `O=C(Cn1cnc2nc(N3CCC(C(=O)NC4CC4)CC3)sc2c1=O)Nc1ccccc1` was 650 s.

Compound `Cc1nc(C(=O)NCc2ccccc2C(F)(F)F)c(C)o1` returned an RP-LC retention time of 917 s. The value for `CC1CS(=O)(=O)N(c2cccc(C(=O)N3CCCc4ccccc43)c2)C1=O` (stereo not given) was 781 s. The value for `COc1ccc(-c2cc3n(n2)CCCN(S(=O)(=O)c2cccc(C#N)c2)C3)cc1OC` was 814 s. The value for `CCc1ccc(CNC(=O)CCc2c(-c3ccc(Br)cc3)nc3ccccn23)cc1` was 753 s.

The compound `COCCN1CC2(CCN(S(=O)(=O)c3cccc(Cl)c3)CC2)C1c1ccncc1` (stereo not given) gave an RP-LC retention time of 631 s. Turning to `Cc1ccc(-c2ccc(N3CCCC(C(=O)N4CCC(C)CC4)C3)nn2)cc1C` (stereo not given), the RP-LC retention time was 792 s. As to `CCc1ccc(CNC(=O)C2CCN(c3cnc4nccnc4c3)CC2)cc1`, the RP-LC retention time came out at 747 s.

`CCOC(=O)c1cnc2nc(C)ccc2c1Nc1ccc(O)cc1` had an RP-LC retention time of 618 s. Turning to `CCc1nc(C2CCN(C(=O)C3(c4ccc(OC)cc4)CC3)CC2)n[nH]1`, the RP-LC retention time was 551 s. The value for `O=C1CC(NC(=O)NCc2ccc(Cl)cc2)CN1` (stereo not given) was 592 s; that for `CSc1ccc(CNC(=O)CN2CCc3ccccc3C2C(=O)N2CCCCC2)cc1` (stereo not given) was 889 s. For `Cc1ccc(Cl)cc1NC(=O)Cn1cnc2nc3c(cc2c1=O)CCCC3`, the RP-LC retention time came out at 783 s. For `Cc1ncc2c(n1)C[C@@H]1CC[C@H]2N1C(=O)Nc1ccc(C)c(F)c1` the value was 728 s; for `O=C(Cn1nc2c(N3CCCCCC3)nccn2c1=O)Nc1ccccc1Cl`, 708 s.

In turn, `Cc1nn(-c2ccc(Cl)cc2)c2nc(N3CCCC(C(=O)NCc4cccc(F)c4)C3)sc12` (stereo not given) yielded an RP-LC retention time of 1240 s. For `CCOc1ccc2c(n1)CCN(C(=O)C1(c3ccc(OC)cc3)CC1)C2` the value was 683 s; for `O=C(c1nc2nc(-c3ccco3)cc(C(F)(F)F)n2n1)N1CCN(c2ccccn2)CC1`, 630 s. In the case of `CC(C)n1nnc2cc(C(=O)O)ccc21`, the RP-LC retention time amounted to 687 s. For `O=C(NCc1ccccn1)C1CCN(c2nc3cccnc3s2)CC1` the value was 588 s. The value for `COC(=O)Cn1c(C2CC(=O)N(Cc3ccccc3)C2)nc2ccccc21` (stereo not given) was 770 s.

Compound `COc1ccc(CNC(=O)c2c(O)c3cccnc3[nH]c2=O)cc1` displayed an RP-LC retention time of 892 s. The value for `CN(C)c1ccc(C(CNC(=O)c2cccs2)N(C)C)cc1` (stereo not given) was 618 s. Turning to `Cc1cc(-c2c(C)sc(C)c2S(=O)(=O)Nc2ccc(C(C)C)cc2)n[nH]1`, the RP-LC retention time is 1200 s.

The compound `CNC(=O)C1CCCN(c2nc3ncn(CC(=O)NCc4ccc5c(c4)OCO5)c(=O)c3s2)C1` (stereo not given) displayed an RP-LC retention time of 618 s.

In turn, `O=C(C1CCCC1)N1CCC(CCOc2ccncc2)CC1` yielded an RP-LC retention time of 616 s.
